Laboratory results reported in patent US20260317312A1, “ISOXAZOLIDINES AS RIPK1 INHIBITORS AND USE THEREOF” (GENZYME CORPORATION, priority 2023, published 2026).

What was measured:
[1] = target: T1, hRIPK1 (aa 1-375) fusion protein (Homo sapiens, UniProt Q13546); assay: Receptor-Interacting Protein Kinase 1 inhibition, ADP Glo assay (conversion of ATP to ADP due to autophosphorylation); type: biochemical; conditions: ATP 50 μM, 30 min preincubation, 240 min incubation, room temperature, DMSO 1%
T1 construct: hRIPK1 (aa 1-375) fusion protein
T1 sequence (Q13546 1-375): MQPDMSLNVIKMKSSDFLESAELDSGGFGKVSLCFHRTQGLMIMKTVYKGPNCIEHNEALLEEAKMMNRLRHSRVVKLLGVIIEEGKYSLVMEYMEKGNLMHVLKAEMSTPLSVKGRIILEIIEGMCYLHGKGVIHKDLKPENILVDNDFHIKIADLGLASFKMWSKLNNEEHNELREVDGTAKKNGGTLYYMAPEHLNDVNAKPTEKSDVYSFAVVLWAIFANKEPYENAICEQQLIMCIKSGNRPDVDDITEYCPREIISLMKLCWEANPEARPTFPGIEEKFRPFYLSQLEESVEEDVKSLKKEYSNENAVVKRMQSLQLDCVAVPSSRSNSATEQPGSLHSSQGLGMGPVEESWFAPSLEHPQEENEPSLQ
Procedure: The catalytic activity of RIPK1 was measured by monitoring the conversion of Adenosine triphosphate (ATP) to Adenosine diphosphate (ADP) due to autophosphorylation using an ADP-Glo kinase kit (Promega, catalog no. V9104).
In detail, 2 μl recombinantly produced hRIPK1 (aa 1-375) fusion protein (end concentration 3.6 μg/ml) and 2 μl compound (end concentration 33300-1.69 nM; DMSO end concentration 1%) were incubated for 30 minutes at room temperature and then 2 μl ATP (ADP Glo kit, end concentration 50 μM) were added. After another 240 minutes incubation at room temperature, 5 μl Promega ADP-Glo reagent I was added to quench the reaction and deplete unconsumed ATP. After an incubation period of 30 minutes, 10 μl Promega ADP-Glo detection reagent II was added resulting in conversion of ADP to ATP, which generates a light-reaction between luciferase and luciferin. Luminescence was quantified after 30 minutes with a Pherastar FS (BMG LABTECH, Ortenberg).
The adjustment was obtained by nonlinear regression using the Levenberg Marquardt algorithm.

[2] = test system: U937 cells; assay: Cellular assay in U937 cells to measure activity of RIPK1-inhibitors on cell death (necroptosis); type: cell-based; conditions: overnight (18 to 24 hrs), 37° C., MTS readout
Text: Upon TNF-Receptor I ligation, Ser/Thr kinase RIPK1 is recruited to a transient receptor complex I. Upon modification of RIPK1 which promotes activation of RIPK1, complex lib can form, that involves recruitment of RIPK3 and MLKL (mixed lineage-kinase domain-like protein) which then translocates from the cytosol to the plasma membrane to execute cell death (Cai, Z. et al, Nat. Cell Biol. (2014)16:55-65).
Cell death was quantified in 96 well plates by determination of the amount of live cell using a CellTiter 96 Aqueous reagent (Promega), a calorimetric method to measure the number of live cells by reducing tetrazolium compound [3-(4,5-dimethylthiazol-2-yl)-5-(3-carboxymethoxyphenyl)-2-(4-sulfophenyl)-2H-tetrazolium, inner salt; MTS] into formazan. Absorbance of formazan was read at 490 nm. The inhibitory activity of the test compound was quantified in a concentration response curve (CRC) experiment.
Compounds were obtained as 10 mM stock solutions and were diluted 1 to 10 volumes with DMSO to yield a 1 mM solution. From this solution 2 μl were diluted with 998 μl growth medium. 100 μl of 2 μM compound solution was further diluted sequentially with a dilution factor of 2.5 by adding 150 μl growth medium. A total of 10 concentrations were tested ranging from 10 μM to 0.26 nM or from 1 μM to 0.07 nM.
U937 cells were cultured in RPM11640 Glutamax and 10% heat inactivated FBS. 50 μl cell suspension containing 1×10^6 cells/ml supplemented with 50 μM zVAD.fmk (Benzyloxycarbonyl-Val-Ala-Asp (Ome) fluoromethylketone) and 100 ng/ml recombinant human TNFα were dispensed in each well of a 96-well plate. 50 μl of compound dilutions (described in Cellular assay in U937 cells) were added and the cell suspension incubated overnight (18 to 24 hrs) at 37° C., 5% CO2 in a humidified atmosphere (95% rH). High (no compound) and low control (no TNFα, zVAD.fmk) were tested with 7 replicates; all compound concentrations were tested in duplicates on each experimental plate.
CellTiter 96 Aqueous reagent was mixed (100 μl PMS (phenazine methosulfate) solution/2 ml MTS (3-(4,5-[…])-5-(3-carboxymethoxyphenyl)-2-(4-sulfophenyl)-2H-tetrazolium, inner salt) solution) and 20 μl were added per well. After 4 hrs incubation at 37° C. (5% CO2 95% rH) optical density was measured at 490 nm on a microplate reader (Tecan Infinite M1000).
The % inhibition is expressed as percentage of the maximal inhibition value obtained in the absence of TNFα/zVAD.fmc.

[3] = Homo sapiens, U-937, TNFα/zVAD.fmk induced cell death (necroptosis)
[4] = TNFα/zVAD.fmk induced cell death (necroptosis)

SMILES | IC50 [1] [nM] | IC50 [2, 3] [nM] | IC50 [2, 4] [nM]
NC(=O)c1ccnc(C2CCC(C(=O)N3OCC[C@H]3c3cc(F)cc(F)c3)C2)c1 (single isomer, unassigned) [Compound 114] | 132 | 816 | 
N#Cc1cc(F)cc([C@@H]2CCON2C(=O)C2CCC(COc3cc(C(N)=O)ncn3)C2)c1 (single isomer, unassigned) [Compound 115] | 53 |  | 842
NC(=O)c1cc(OCC2CCC(C(=O)N3OCC[C@H]3c3cc(F)cc(F)c3)C2)ncn1 (single isomer, unassigned; stereoisomer 2) [Compound 119] | 29 |  | 388
N#Cc1cc(F)cc([C@@H]2CCON2C(=O)C2CCC(COc3cc(C(N)=O)ncn3)C2)c1 (single isomer, unassigned; stereoisomer 3) [Compound 117] | 50 |  | 675
NC(=O)c1cc(OCC2CCC(C(=O)N3OCC[C@H]3c3cc(F)cc(F)c3)C2)ncn1 (single isomer, unassigned; stereoisomer 3) [Compound 120] | 32 |  | 336
NC(=O)c1cc(OCC2CCC(C(=O)N3OCC[C@H]3c3cc(F)cc(F)c3)C2)ncn1 (single isomer, unassigned; stereoisomer 4) [Compound 121] | 30 |  | 755
NC(=O)c1cc(OCC2CCCC(C(=O)N3OCC[C@H]3c3cc(F)cc(F)c3)CC2)ncn1 (single isomer, unassigned; stereoisomer 4) [Compound 125] | 39 |  | 347
COC(=O)c1ccnc(N[C@H]2C[C@@H](C(=O)N3OCC[C@H]3c3cc(F)cc(F)c3)C2)n1 [Compound 3, methyl cis-2-((3-((S)-3-(3,5-difluorophenyl)isoxazolidine-2-carbonyl)cyclobutyl)amino)pyrimidine-4-carboxylate] | 47 | 536 | 
NC(=O)c1ccnc(N[C@H]2C[C@H](C(=O)N3OCC[C@H]3c3cc(F)cc(F)c3)C2)n1 [Compound 4, trans-2-((3-((S)-3-(3,5-difluorophenyl)isoxazolidine-2-carbonyl)cyclobutyl)amino)pyrimidine-4-carboxamide] | 90 | 360 | 
C[C@]1(C(=O)N2OCC[C@H]2c2cc(F)cc(F)c2)C[C@@H](Nc2nccc(C#N)n2)C1 [Compound 5, cis-2-((3-((S)-3-(3,5-difluorophenyl)isoxazolidine-2-carbonyl)-3-methylcyclobutyl)amino)pyrimidine-4-carbonitrile] | 38 | 75 | 
CCOC(=O)c1ncnc(N[C@H]2C[C@@](C)(C(=O)N3OCC[C@H]3c3cc(F)cc(F)c3)C2)c1F [Compound 8, ethyl cis-6-((3-((S)-3-(3,5-difluorophenyl)isoxazolidine-2-carbonyl)-3-methylcyclobutyl)amino)-5-fluoropyrimidine-4-carboxylate] | 25 | 196 | 
CCOC(=O)c1ncnc(Cl)c1N[C@H]1C[C@@](C)(C(=O)N2OCC[C@H]2c2cc(F)cc(F)c2)C1 [Compound 9, ethyl cis-6-chloro-5-((3-((S)-3-(3,5-difluorophenyl)isoxazolidine-2-carbonyl)-3-methylcyclobutyl)amino)pyrimidine-4-carboxylate] | 366 | 757 | 
N#Cc1cc(F)cc([C@@H]2CCON2C(=O)[C@H]2CC[C@@H](Nc3cc(C#N)ncn3)CC2)c1 [Compound 28, cis-6-((4-((S)-3-(3-cyano-5-fluorophenyl)isoxazolidine-2-carbonyl)cyclohexyl)amino)pyrimidine-4-carbonitrile] | 162 |  | 

More lines, main results first:

IC50 [1] [nM] | SMILES | IC50 [2, 3] [nM] | IC50 [2, 4] [nM]
20 | N#Cc1cc(F)cc([C@@H]2CCON2C(=O)C2CCCC(COc3cc(C(N)=O)ncn3)CC2)c1 (single isomer, unassigned) [Compound 128] |  | 691
20 | NC(=O)c1cc(OCC2CCC(C(=O)N3OCC[C@H]3c3cc(F)cc(F)c3)C2)ncn1 (single isomer, unassigned; stereoisomer 1) [Compound 118] |  | 137
17 | NC(=O)c1cc(OCC2CCCC(C(=O)N3OCC[C@H]3c3cc(F)cc(F)c3)CC2)ncn1 (single isomer, unassigned; stereoisomer 1) [Compound 122] |  | 30
25 | N#Cc1cc(F)cc([C@@H]2CCON2C(=O)C2CCCC(COc3cc(C(N)=O)ncn3)CC2)c1 (single isomer, unassigned; stereoisomer 1) [Compound 126] |  | 54
23 | N#Cc1cc(F)cc([C@@H]2CCON2C(=O)C2CCC(COc3cc(C(N)=O)ncn3)C2)c1 (single isomer, unassigned; stereoisomer 2) [Compound 116] |  | 377
14 | NC(=O)c1cc(OCC2CCCC(C(=O)N3OCC[C@H]3c3cc(F)cc(F)c3)CC2)ncn1 (single isomer, unassigned; stereoisomer 2) [Compound 123] |  | 24
17 | N#Cc1cc(F)cc([C@@H]2CCON2C(=O)C2CCCC(COc3cc(C(N)=O)ncn3)CC2)c1 (single isomer, unassigned; stereoisomer 2) [Compound 127] |  | 31
21 | NC(=O)c1cc(OCC2CCCC(C(=O)N3OCC[C@H]3c3cc(F)cc(F)c3)CC2)ncn1 (single isomer, unassigned; stereoisomer 3) [Compound 124] |  | 81
19 | NC(=O)c1ccnc(N[C@H]2C[C@@H](C(=O)N3OCC[C@H]3c3cc(F)cc(F)c3)C2)n1 [Compound 1, cis-2-((3-((S)-3-(3,5-difluorophenyl)isoxazolidine-2-carbonyl)cyclobutyl)amino)pyrimidine-4-carboxamide] | 34 | 
22 | N#Cc1ccnc(N[C@H]2C[C@@H](C(=O)N3OCC[C@H]3c3cc(F)cc(F)c3)C2)n1 [Compound 2, cis-2-((3-((S)-3-(3,5-difluorophenyl)isoxazolidine-2-carbonyl)cyclobutyl)amino)pyrimidine-4-carbonitrile] | 101 | 
21 | C[C@]1(C(=O)N2OCC[C@H]2c2cc(F)cc(F)c2)C[C@@H](Nc2nccc(C(N)=O)n2)C1 [Compound 6, cis-2-((3-((S)-3-(3,5-difluorophenyl)isoxazolidine-2-carbonyl)-3-methylcyclobutyl)amino)pyrimidine-4-carboxamide] | 6 | 
23 | C[C@]1(C(=O)N2OCC[C@H]2c2cncc(C#N)c2)C[C@@H](Nc2nccc(C(N)=O)n2)C1 [Compound 7, cis-2-((3-((S)-3-(5-cyanopyridin-3-yl)isoxazolidine-2-carbonyl)-3-methylcyclobutyl)amino)pyrimidine-4-carboxamide] | 336 | 
